Test results as given in PubChem BioAssay AID720608 (Broad Institute, 2013).
Records with an inconclusive call do not appear.

Test system: SR lymphoma cells viability, CellTiter-Glo ATP, 8-48 h
Test: cytotoxicity in SR immunoblastic lymphoma cells – cell-based, CellTiter-Glo ATP luminescence, 8-48 h, dry powder, mechanism study for HRAS target identification, late-stage follow-up (AID 720608)

SMILES	AC50 (measured here: 8 h treatment) [nM]	AC50 (measured here: 24 h treatment) [nM]	AC50 (measured here: 48 h treatment) [nM]
CC(C)(C)OC(=O)NCCOCCOCCOc1ccc(N(C(=O)CCl)C(C(=O)NCCc2ccccc2)c2cccs2)cc1Cl (stereo not given)	265	61.1	53.1
Cc1onc(C(=O)N2CCN(C(c3ccc(Cl)cc3)c3ccc(Cl)cc3)CC2)c1[N+](=O)[O-]	364	80.4	97.9
C#CCCCC(=O)NCCOCCOCCOc1ccc(N(C(=O)CCl)C(C(=O)NCCc2ccccc2)c2cccs2)cc1Cl (stereo not given)	2430	406	703
COC(=O)c1ccc([C@@H]2c3[nH]c4ccccc4c3C[C@@H](C(=O)OC)N2C(=O)CCl)cc1	112	17.1	18.6
COc1ccc(N(C(=O)CCl)C(C(=O)NCCc2ccccc2)c2cccs2)cc1Cl (stereo not given)	119	46.8	42.3
